In patent publication US7384629B2, “Biological control of nematodes with Hirsutella minnesotensis” (Regents of the University of Minnesota, priority 2000, dated 2008):
Like-named read-outs stand apart in the source and are kept apart here.

Assays:
Hirsutella rhossiliensis [1] = details: for Growth rate mm-in-diam, on agar: named vitamin excluded from medium with all other vitamins; for Growth rate mm-in-diam, on agar / Sporulation 10^3/cm^2, on agar / growth in liquit culture (visual rating): 5 weeks; for Spore germination %, on agar / Sporulation 10^3/cm^2, on agar / growth in liquit culture (visual rating): named vitamin excluded
Hirsutella rhossiliensis [2] = experiment: Effect of nitrogen source on growth, sporulation and spore germination; details: for Growth mm-in-diam, on agar: nitrogen source 0.3296 g/L nitrogen
[3] = nitrogen source, isolate ATCC46487
[4] = nitrogen source, isolate JA16-1
[5] = nitrogen source, isolate OWVT-1

Row | Molecule | Growth rate mm-in-diam, on agar (Hirsutella rhossiliensis [1]; isolate ATCC46487) [mm-in-diam] | Growth rate mm-in-diam, on agar (Hirsutella rhossiliensis [1]; isolate JA16-1) [mm-in-diam] | Growth rate mm-in-diam, on agar (Hirsutella rhossiliensis [1]; isolate OWVT-1) [mm-in-diam] | Spore germination %, on agar (Hirsutella rhossiliensis [1]; isolate ATCC46487) [%] | Sporulation 10^3/cm^2, on agar (Hirsutella rhossiliensis [1]; isolate ATCC46487) | Spore germination %, on agar (Hirsutella rhossiliensis [1]; isolate JA16-1) [%] | Sporulation 10^3/cm^2, on agar (Hirsutella rhossiliensis [1]; isolate JA16-1) | growth in liquit culture (visual rating) (Hirsutella rhossiliensis [1]; isolate JA16-1) | Spore germination %, on agar (Hirsutella rhossiliensis [1]; isolate OWVT-1) [%] | Sporulation 10^3/cm^2, on agar (Hirsutella rhossiliensis [1]; isolate OWVT-1) | growth in liquit culture (visual rating) (Hirsutella rhossiliensis [1]; isolate ATCC46487) | growth in liquit culture (visual rating) (Hirsutella rhossiliensis [1]; isolate OWVT-1) | Growth mm-in-diam, on agar (Hirsutella rhossiliensis [2]; isolate ATCC46487, 5 weeks) [mm-in-diam] | Growth mm-in-diam, on agar (Hirsutella rhossiliensis [2]; isolate JA16-1, 5 weeks) [mm-in-diam] | Growth mm-in-diam, on agar (Hirsutella rhossiliensis [2]; isolate OWVT-1, 5 weeks) [mm-in-diam] | Spore germination %, on agar (Hirsutella rhossiliensis [2]; [3]) [%] | growth in liquit culture (visual rating) (Hirsutella rhossiliensis [2]; nitrogen source, isolate ATCC46487, 5 weeks) | Spore germination %, on agar (Hirsutella rhossiliensis [2]; [4]) [%] | Spore germination %, on agar (Hirsutella rhossiliensis [2]; [5]) [%] | Sporulation 10^3/cm^2, on agar (Hirsutella rhossiliensis [2]; nitrogen source, isolate OWVT-1, 5 weeks)
1 | O=C(O)c1cccnc1 [Nicotinic acid] | 40.5 | 20.0 | 27.7 | 77.8 | 30.1 10^3/cm^2 | 94.4 | 12.2 10^3/cm^2 | I | 57.8 | 10.7 10^3/cm^2 |  |  |  |  |  |  |  |  |  | 
2 | Cc1ncc(CO)c(CO)c1O [Pyridoxine (VB6)] | 40.5 | 17.2 | 29.5 | 74.4 | 31.1 10^3/cm^2 | 90.0 | 16.5 10^3/cm^2 | I | 50.0 | 13.0 10^3/cm^2 | III (III = hyphae growth or colonies form a pellet, less than 2.5 ml) |  |  |  |  |  |  |  |  | 
3 | Cc1cc2nc3c(=O)[nH]c(=O)nc-3n(C[C@H](O)[C@H](O)[C@H](O)CO)c2cc1C [Riboflavin, UPS (VB2)] | 41.0 | 20.2 | 30.2 | 91.1 | 30.6 10^3/cm^2 | 85.6 | 13.2 10^3/cm^2 | I | 60.0 | 11.1 10^3/cm^2 |  | I |  |  |  |  |  |  |  | 
4 | Cc1ncc(C[n+]2csc(CCO)c2C)c(N)n1 [Thiamine (VB1)] | 38.5 | 20.3 | 24.7 | 75.6 | 30.1 10^3/cm^2 | 91.1 | 30.4 10^3/cm^2 |  | 58.9 | 15.7 10^3/cm^2 |  |  |  |  |  |  |  |  |  | 
5 | NC(N)=O [Urea] |  |  |  |  |  |  |  |  |  |  |  |  | 43.5 | 14.0 | 16.7 | 91.1 | IV (IV = the pellet diameter larger than 1 cm, but the total volume distribution less than 5 ml) | 85.6 | 64.4 | 
6 | O=C(O)CCCC[C@@H]1SC[C@@H]2NC(=O)N[C@@H]21 [d-Biotin (V.H)] | 39.7 | 16.3 | 27.7 | 80.0 | 29.5 10^3/cm^2 | 90.0 | 14.1 10^3/cm^2 | I | 50.0 | 11.7 10^3/cm^2 |  |  |  |  |  |  |  |  |  | 
7 | O[C@H]1[C@H](O)[C@@H](O)[C@H](O)[C@@H](O)[C@H]1O [myo-inositol] | 40.8 | 18.3 | 31.5 | 72.2 | 41.9 10^3/cm^2 | 84.4 | 16.7 10^3/cm^2 | I | 64.4 | 8.3 10^3/cm^2 |  |  |  |  |  |  |  |  |  | 
8 | Nc1ccc(C(=O)O)cc1 [p-Amino-benzoic acid (PABA)] | 41.5 | 16.7 | 28.3 | 82.2 | 29.9 10^3/cm^2 | 84.4 | 35.1 10^3/cm^2 | I | 51.1 | 14.2 10^3/cm^2 |  |  |  |  |  |  |  |  |  | 
9 | Casein |  |  |  |  |  |  |  |  |  |  |  |  |  |  | 23.0 | 96.7 |  | 90.0 | 44.4 | 43.6 10^3/cm^2
